Test results: patent US20240268388A1, “AGRICULTURAL AND HORTICULTURAL FUNGICIDAL COMPOSITION” (NIPPON SODA CO., LTD., priority 2021, published 2024)

How the values were obtained:
[1] = test system: wheat leaf blight pathogen (Septoria tritici); test: Fungicidal test for wheat leaf blight (microplate, turbidity at 405 nm); type: cell-based; details: component (II) alone
Description: Compounds of component (I) and component (II) were dissolved in dimethyl sulfoxide at 10,000 ppm and diluted with water to the prescribed concentration to prepare a chemical agent solution. A mixture of the prescribed concentration of the chemical agent solution, wheat leaf blight pathogen (Septoria tritici) conidia, and malt extract was prepared on a microplate and incubated at 20° C. in the dark for 3 days. The turbidity at a wavelength of 405 nm was measured with a microplate reader, and the growth of wheat leaf blight pathogen was compared with that of no treatment control to determine the growth inhibition rate. The results are shown in Tables 2 to 7, along with the expected values calculated as below.
Each expected value was calculated from the fungicidal efficacy of a single application of the compound of component (I) and the fungicidal efficacy of a single application of compound of component (II) by using Colby's equation (S. R. Colby, Calculating synergistic and antagonistic responses of herbicide combinations, Weeds, 15, 20-22 pp (1967)).
[formula] • where E represents the expected value of the growth inhibition rate (%) for the composition containing component (I) and component (II), M represents the growth inhibition rate (%) when the component (I) is used alone, and N represents the growth inhibition rate (%) when the component (II) is used alone. When the measured growth inhibition rate (%) for the composition containing component (I) and component (II) is greater than the expected value E, the composition containing components (I) and component (II) should exert a synergistic effect.

[2] = test system: soybean rust pathogen (Phakopsora pachyrhizi); test: Soybean rust control test (leaf discs); type: in vivo
Description: Compounds of component (I) and component (II) were dissolved in dimethyl sulfoxide and diluted with water to the prescribed concentration to prepare a chemical agent solution. A mixture of the prescribed concentration of the chemical agent solution and sterile water was prepared on a microplate, and leaf discs cut from soybean leaves were floated on the microplate. Uredospores of soybean rust pathogen (Phakopsora pachyrhizi) were inoculated and incubated at 25° C. for 9 days. The area percentage of lesions was determined by observing uredospore-forming lesions on the leaf discs, and the control value was calculated. The control value was calculated by the following formula:
Control value (%)=100−{Area percentage of lesions in treatment plot/Area percentage of lesions in untreatment plot}×100.
The results are shown in Tables 8 to 18, along with the expected values calculated as below. Each expected values was calculated from the fungicidal efficacy of a single application of compound of component (I) and the fungicidal efficacy of a single application of compound of component (II) by using Colby's equation:
[formula] • where E represents the expected value of the control value for the composition containing component (I) and component (II), M represents the control value (%) when the component (I) is used alone, and N represents the control value (%) when the component (II) is used alone. When the measured control value for the composition containing component (I) and component (II) is greater than the expected value E, the composition containing component (I) and composition (II) should exert a synergistic effect.

[3] = Zymoseptoria tritici, 0.25 ppm, read-out: growth inhibition rate
[4] = Zymoseptoria tritici, 1 ppm, read-out: growth inhibition rate
[5] = Table 15, component (II) alone (component (I): None): Azoxystrobin 0.0001, Inpyrfluxam 0.000025, Chlorothalonil 0.0063, Difenoconazole 0.000025, Cyproconazole 0.000025, Tebuconazole 0.000025, Trifloxystrobin 0.0001, Pyraclostrobin 0.0001, Fluazinam 0.0063, Fluxapyroxad 0.000025, Prothioconazole 0.000025, Florylpicoxamid 0.0001, Benzovindiflupyr 0.000025, Mancozeb 0.0063 ppm
[6] = Table 18, component (II) alone (component (I): None): Azoxystrobin 0.0001, Inpyrfluxam 0.000025, Chlorothalonil 0.0063, Difenoconazole 0.000025, Cyproconazole 0.000025, Tebuconazole 0.000025, Trifloxystrobin 0.0001, Pyraclostrobin 0.0001, Fluazinam 0.0063, Fluxapyroxad 0.000025, Prothioconazole 0.000025, Florylpicoxamid 0.0001, Benzovindiflupyr 0.000025, Mancozeb 0.0063 ppm
[7] = Zymoseptoria tritici, read-out: growth inhibition rate
[8] = Table 14, component (II) alone (component (I): None): Inpyrfluxam 0.00025, Chlorothalonil 0.006, Thiophanate-methyl 0.0001, Tebuconazole 0.000025, Trifloxystrobin 0.0001, Fluazinam 0.006, Prothioconazole 0.000025, Florylpicoxamid 0.0001, Metominostrobin 0.0004 ppm
[9] = Table 16, component (II) alone (component (I): None): Inpyrfluxam 0.000025, Chlorothalonil 0.006, Thiophanate-methyl 0.0001, Tebuconazole 0.000025, Trifloxystrobin 0.0001, Fluazinam 0.006, Prothioconazole 0.000025, Florylpicoxamid 0.0001, Metominostrobin 0.0004 ppm
[10] = Table 17, component (II) alone (component (I): None): Inpyrfluxam 0.000026, Chlorothalonil 0.02, Thiophanate-methyl 0.0004, Tebuconazole 0.0001, Trifloxystrobin 0.0001, Fluazinam 0.006, Prothioconazole 0.000025, Florylpicoxamid 0.0001, Metominostrobin 0.0004 ppm
[11] = Zymoseptoria tritici, 0.02 ppm, read-out: growth inhibition rate

SMILES	inhibition at 0.25 ppm [1, 3] [%]	control value [2, 5] [%]	control value [2, 6] [%]	control value [2, 8] [%]	control value [2, 9] [%]	control value [2, 10] [%]	other results
CC(C1CC1)C(O)(Cn1cncn1)c1ccc(Cl)cc1 (centres unmarked) [Cyproconazole, cyproconazole, reference compound]	15	33	0	–	–	–	inhibition at 1 ppm [1, 4]: 1%; control value ([2]; component (II) alone, 0.0001 ppm): 88%
CC1COC(Cn2cncn2)(c2ccc(Oc3ccc(Cl)cc3)cc2Cl)O1 (centres unmarked) [Difenoconazole, difenoconazole]	–	75	0	–	–	–	inhibition at 0.004 ppm [1, 7]: 75%; inhibition at 0.04 ppm ([1]; Zymoseptoria tritici, 0.04 ppm, read-out: growth inhibition rate): 75%; inhibition at 4 ppm ([1]; Zymoseptoria tritici, 4 ppm, read-out: growth inhibition rate): 85%; inhibition at 16 ppm ([1]; Zymoseptoria tritici, 16 ppm, read-out: growth inhibition rate): 83%; inhibition at 0.0002 ppm ([1]; Zymoseptoria tritici, .0002 ppm (also printed 0002), read-out: growth inhibition rate): 69%
O=[N+]([O-])c1cc(C(F)(F)F)c(Cl)c([N+](=O)[O-])c1Nc1ncc(C(F)(F)F)cc1Cl [Fluazinam, fluazinam, reference compound]	–	0	50	16	16	16	inhibition at 0.004 ppm [1, 7]: 0%
Cn1cc(C(=O)Nc2ccccc2-c2cc(F)c(F)c(F)c2)c(C(F)F)n1 [Fluxapyroxad, fluxapyroxad]	–	0	75	–	–	–	growth inhibition rate ([1]; 0.001 ppm): 32%; growth inhibition rate ([1]; 0.02 ppm): 63%; growth inhibition rate ([1]; 1 ppm): 86%
CO/C=C(/C(=O)OC)c1ccccc1COc1cccc(C(F)(F)F)n1 [Picoxystrobin, picoxystrobin]	–	–	–	–	–	–	growth inhibition rate ([1]; 0.02 ppm): 2%; growth inhibition rate ([1]; 0.06 ppm): 3%; growth inhibition rate ([1]; 0.25 ppm): 8%; growth inhibition rate ([1]; 1 ppm): 8%
OC(Cc1ccccc1Cl)(Cn1nc[nH]c1=S)C1(Cl)CC1 (centres unmarked) [Prothioconazole, prothioconazole, reference compound]	7	33	50	44	44	44	inhibition at 0.02 ppm [1, 11]: 10%; inhibition at 1 ppm [1, 4]: 8%
COC(=O)N(OC)c1ccccc1COc1ccn(-c2ccc(Cl)cc2)n1 [Pyraclostrobin, pyraclostrobin, reference compound]	86	33	0	–	–	–	inhibition at 0.02 ppm [1, 11]: 24%
CC(C)(C)C(O)(CCc1ccc(Cl)cc1)Cn1cncn1 (centres unmarked) [Tebuconazole, tebuconazole, reference compound]	–	33	33	44	44	86	inhibition at 0.016 ppm ([1]; Zymoseptoria tritici, 0.016 ppm, read-out: growth inhibition rate): 0%; inhibition at 0.063 ppm ([1]; Zymoseptoria tritici, 0.063 ppm, read-out: growth inhibition rate): 33%; inhibition at 64 ppm ([1]; Zymoseptoria tritici, 64 ppm, read-out: growth inhibition rate): 76%
CON=C(C(=O)OC)c1ccccc1CON=C(C)c1cccc(C(F)(F)F)c1 [Trifloxystrobin, trifloxystrobin, reference compound]	21	0	75	16	16	16	control value ([2]; component (II) alone, 0.0004 ppm): 50%
CCCOC/C(=N\c1ccc(Cl)cc1C(F)(F)F)n1ccnc1 [Triflumizole, triflumizole]	11	–	–	–	–	–	inhibition at 0.06 ppm ([1]; Zymoseptoria tritici, 0.06 ppm, read-out: growth inhibition rate): 12%
